Data published in patent US7374890B2, “Methods for identifying compounds that modulate ΔTRα2 activity” (University of Massachusetts, priority 2000, dated 2008).
pEC50, pKd: −log10 of the molar value.

Experiments:
[1] = test system: Ca-dependent Mg-ATPase release of p29 vesicles from F-actin; assay: release of F-actin-bound p29 vesicles by Ca-dependent Mg-ATPase; assay type: biochemical, rat; conditions: 5 mM EGTA
Description: To determine whether this is a direct interaction between the vesicle and F-actin or is mediated by other actin-bound proteins, e.g., myosin V, the release of p29 vesicle bound to F-actin by activating a Ca-dependent Mg-ATPase was investigated. Synaptic vesicle-bound myosin V is released from F-actin by activating the Ca-dependent MgATPase found in the actin binding head of myosin V (Prekeris et al, 1997, J. Cell Biol. 137: 1589-1601; Nascimento et al., 1996, J. Biol. Chem. 271:17561-17569). In this experiment, confluent monolayers of astrocytes were grown in serum-free media for 16 hours, then D2 activity was induced with bt2cAMP and hydrocortisone, and the p29 vesicle was affinity radiolabeled with BrAc[^125I]T4. Cell lysates containing approximately 50,000 cpm of BrAc[^125I]T4-labeled p29 were pretreated with 10 nM […] at 37° C., followed by an additional 20 minute incubation with 0.1 mM Ca^2+, 1 mM Mg^2+, 0.1 mM ATP, or 5 mM EGTA. Triton-insoluble (F-actin bound) pellets were prepared as described herein. […] Triton-insoluble (F-actin-bound) pellets were separated from the Triton-soluble (vesicle) fraction by microfuge centrifugation (14,000×g for five minutes) and the distribution of p29 was determined by y-counting, and by SDS-PAGE analysis.

D2 activity = conditions: in astrocytes; cited from earlier work
T4 deiodinases = conditions: cited from earlier work
transthretin = transthretin (Homo sapiens, UniProt P02766); conditions: cited from earlier work
deiodination = conditions: cited from earlier work
[2] = biological target: T1, ΔTRα2 (T4 Inactivating Protein; TIP) (Rattus norvegicus, UniProt P63059); assay: rT3 binding displacement in nuclei-free extracts of cultured rat astrocytes
T1 construct: ΔTRα2 is encoded by exons 8-10 resulting in an approximately 25 kd protein
T1 sequence (P63059 whole entry, stated change not applied): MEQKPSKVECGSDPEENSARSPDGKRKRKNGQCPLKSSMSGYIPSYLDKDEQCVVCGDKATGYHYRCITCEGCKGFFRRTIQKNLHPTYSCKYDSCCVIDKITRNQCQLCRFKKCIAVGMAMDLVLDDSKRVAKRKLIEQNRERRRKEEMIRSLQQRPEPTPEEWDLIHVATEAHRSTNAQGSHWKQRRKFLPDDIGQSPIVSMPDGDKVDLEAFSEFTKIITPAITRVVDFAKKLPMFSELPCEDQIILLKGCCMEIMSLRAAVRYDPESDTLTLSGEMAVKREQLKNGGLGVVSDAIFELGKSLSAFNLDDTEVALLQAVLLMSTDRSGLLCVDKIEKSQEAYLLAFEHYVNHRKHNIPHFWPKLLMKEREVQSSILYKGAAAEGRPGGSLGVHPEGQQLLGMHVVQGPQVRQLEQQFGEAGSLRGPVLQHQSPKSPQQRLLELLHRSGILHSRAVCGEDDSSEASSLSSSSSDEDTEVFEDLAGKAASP
Description: The properties of thyroid hormone binding to non-nuclear components of the cell were examined using ΔTRα2 (T4 Inactivating Protein; TIP)-containing, nuclei-free extracts of cultured rat astrocytes. […] Both rT3 and T4 specifically displace rT3 with Kd's of approximately 0.3-0.5 nM.

ΔTRα1 = ΔTRα1 (Rattus norvegicus, UniProt P63059); assay: [125I]rT3 displacement from cell-free translated ΔTRα1; assay type: binding; conditions: cell-free translated polypeptide
Description: (§1) ΔTRα1 and ΔTRα2 polypeptides were synthesized by cell-free translation of appropriate segments of the rat ΔTRα1 and ΔTRα2 cDNA using the coupled transcription-translation kit from Promega® (TNT) according to the manufacturer's instructions.

ΔTRα2 = biological target: T2, ΔTRα2 (Rattus norvegicus, UniProt P63059); assay: [125I]rT3 displacement from cell-free translated ΔTRα2; assay type: binding; conditions: cell-free translated polypeptide
T2 sequence (P63059 256-492): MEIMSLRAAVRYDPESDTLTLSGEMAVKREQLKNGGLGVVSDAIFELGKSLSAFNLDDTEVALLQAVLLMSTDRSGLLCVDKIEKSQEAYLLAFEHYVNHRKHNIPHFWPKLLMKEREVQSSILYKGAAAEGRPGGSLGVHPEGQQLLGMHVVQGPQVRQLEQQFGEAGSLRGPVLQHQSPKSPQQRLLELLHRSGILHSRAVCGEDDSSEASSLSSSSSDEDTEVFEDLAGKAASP
Description: as §1

[3] = biological target: binding of p29^GFP vesicles to F-actin; assay: modified in vitro actin binding assay with p29^GFP-labeled vesicles; assay type: biochemical, rat; conditions: 0-100 nM, 20 minutes at 37° C.; read-out: EC50, increase in quantity of p29^GFP bound to F-actin
Description: To define the specific region(s) of the myosin V tail that interact with the p29 vesicle, a series of deletion mutations were created based on the dominant negative effect of exogenous myosin V tail on p29 vesicle binding. Competition analysis of the myosin V deletion mutations on T4-dependent binding of p29 vesicles to F-actin was performed using a modified in vitro assay in which a GFP-tagged p29 fusion protein (p29^GFP) replaced the radioaffinity labeled native p29 (Farwell et al., 1990, J. Biol. Chem. 265:18546-18553; Farwell et al., 1993, J. Biol. Chem. 268:5055-5062). This allowed direct evaluation of the binding of fluorescent vesicles to F-actin without affinity radiolabeling of the p29 and subsequent SDS-PAGE analysis.
Specific fluorescence at 510 nm (excitation, 488 nm) was then determined in the resuspended Triton-insoluble pellets.
To determine if the myosin V tail could be captured by the p29^GFP vesicle, an exogenous myosin V^tail was introduced into astrocytes constitutively expressing p29^GFP by infection with Ad5-ΔMyo V^tail virus particles and examined the effects of T4 on the binding of the myosin V^tail to immunopurified p29^GFP vesicles. Astrocytes expressing p29^GFP were grown in serum-free media and treated for 16 hours with 1 mM bt2cAMP and 100 nM hydrocortisone. A separate pool of astrocytes was treated in serum-free media supplemented with 10 μM retinoic acid. Cells were collected by scraping, and lysed by two freeze-thaw cycles. […] Triton-soluble (vesicle) and Triton-insoluble (F-actin) fractions were separated by microflige centrifugation. Triton pellets were resuspended in 300 μl of PBS and fluorescence at 510 nm (excitation 488 nm) determined and relative fluorescence was reported as arbitrary units. Cells were treated with 10 nM T4 for twenty minutes and a Triton-soluble supernatant was prepared. Vesicles containing the p29^GFP were immunoprecipitated by anti-GFP IgG (2 μg/ml) and protein in the immunoprecipitates were resolved by SDS-PAGE. Immunoblot analysis of vesicle-associated myosin V was performed using the anti-myosin V antibody directed against the C-terminus.
The quantity of each mutant protein synthesized was determined by [^35 S]-methionine incorporation. Astrocytes expressing p29^GFP were grown in serum-free media and treated for 16 hours with […] bt2cAMP and 100 nM hydrocortisone. p29^GFP V-lysate and F-lysate were prepared as described herein. 100 μg aliquots of p29^GFP V-lysate and F-lysate were pre-incubated, in triplicate, for 20 minutes at 37° C. in the presence of individual Δ myosin V mutant proteins (˜2-3 pmol polypeptide/50 μl mixture) were added to the actin-binding assay and pre-incubated for 20 minutes at 37° C. T4 (10 nM) was then added, the mixtures incubated for 20 minutes at 37° C., and F-actin bound, fluorescent p29^GFP vesicles were then isolated in the Triton-insoluble pellet.
V lysates prepared from astrocytes over-expressing p29^GFP were pre-incubated for 30 minutes at room temperature with antisera raised against ΔTRα2, ΔTRα1, the C-terminus of MyoV (encoded by MyoV^tail, FIG. 5), the coiled-coil region of MyoV (encoded by MyoV^coil-coil, FIG. 5) and GFP (green fluorescent protein). T4 (10 nM) and actin fiber-containing F-lysate was then added, the mixtures incubated at 37° C. for 20 minutes, and the Triton-insoluble fraction isolated by centrifugation.

astrocytes = assay: subcellular distribution of immunoreactive TRα2-derived proteins in cultured astrocytes; assay type: cell-based, rat; conditions: serum-free medium, treated 20 minutes, 0.1% bovine serum albumin carrier
Description: The subcellular distribution of immunoreactive thyroid hormone receptor-derived proteins in primary brain cell cultures and in cultured astrocytes was examined. Primary brain cell cultures were fixed with 0.4% paraformaldehyde, permeabilized with Triton X-100®, and stained for TRα-derived proteins using specific antisera directed against the unique C-termini of TRα1 and TRα2 proteins, and visualized by staining with a secondary tagged antibody. Consistent with previous observations (Kolodny et al., 1985, Endocrinol. 117: 1848-1857), immunoreactive TRα1 proteins were found in the nuclei of astrocytes and neuronal cells. However, TRα2-derived proteins were not localized to the nucleus in either astrocytes or neurons, but appeared as donut shaped structures located throughout the astrocyte or as discreet punctate signals along neuronal fibers. This latter pattern is diagnostic for synapses in neuronal cultures (Wong et al., 1999, Neurosci. 89:221-233), and is consistent with the presence of ΔTRα2-derived protein in nerve terminals.
The subcellular distribution of immunoreactive TRα2-derived proteins in cultured astrocytes was influenced by the presence of either T4 or rT3. In these experiments astrocytes were grown in serum-free medium, treated for 20 minutes with either […] or rT3, and fixed, permeabilized, and stained as described above. […]

[4] = test system: cerebellar granule neurons; assay: release of FM1-43-loaded synaptic vesicles from cerebellar granule neurons under continuous stimulus; assay type: cell-based, rat; conditions: 10 nM hormone; continuous stimulation by 50 mM KCl; vs no hormone controls; first order kinetics assumed
Description: Granule neurons were grown for 7 days and rendered hormone free by growth in serum-free medium as detailed above. Coverslips were then placed in a perfusion chamber, mounted on the stage of a laser scanning confocal microscope and perfused at 1 ml/min at 25° C. with perfusion buffer (119 mM NaCl, 2.5 mM KCl, 2 mM CaCl2, 2 mM MgCl2, 25 mM HEPES (pH 7.4), 30 mM glucose, and […] AP-5). The effects of different hormones on synaptic vesicle trafficking were then determined. […] Depolarizing KCl was then removed from the perfusion buffer and the cells were exposed to FM1-43 for an additional 30 seconds to insure complete loading of recycling synaptic vesicles. Loaded cells were then washed free of dye and the cells were perfused for ten minutes at rest.
Images of a single field of neuronal fibers were then taken immediately before adding a second depolarizing solution (perfusion buffer containing 50 mM KCl) and at one and two minutes after beginning the continuous stimulation by 50 mM KCl. Thirty to forty-five individual FM1-43 labeled nerve terminals were identified in the baseline images (taken prior to depolarization) and the change in fluorescence (DF) for each nerve terminal determined at the one and two minute time points. FIGS. 11A and 11B show the results of analysis of the hormone specificity of synaptic vesicle trafficking (FIG. 11A) and the influence of individual myo5a mutants (FIG. 11B) on synaptic vesicle transport in granule neurons.
To evaluate the role of myo5a in synaptic vesicle transport, three different myo5a constructs were introduced into the neurons by replication-deficient adenoviral vectors (Δmyo5a^tail(MyoV^tail), Δmyo5a^c-term(MyoV^1830)and ΔMyo5a^CC(MyoV^cc) see FIG. 5) as described above. […] Neurons were infected with purified Ad5-constructs (MOI=10) 48 hours prior to the synaptic vesicle trafficking study, and allowed to recover in hormone (T4) supplemented medium. […] This modest influence of the VBD mutant on synaptic vesicle retention is likely to be due to the loss of the kinesin-binding domain that limits its delivery to nerve terminals.

Q: Which “block of Ca2+-stimulated, Mg2ATPase-dependent release of p29 from F-actin” value [1] does the source give for `O=C(O)CN(CCOCCOCCN(CC(=O)O)CC(=O)O)CC(=O)O` [EGTA] here?
A: more than 50%

Q: With `Cc1c(-c2cc(Br)c(O)c(Br)c2)oc2ccc(O)cc2c1=O` [EMD21388] as the molecule, how does the “quantity of D2 activity” value (D2 activity) read?
A: decreases the quantity of D2 activity

Q: And the “inhibition of T4 deiodinases” value (T4 deiodinases)?
A: can inhibit

Q: What about the “block of the binding of T4 to transthretin” value (transthretin) of the same molecule?
A: competitively block

Q: For `O=C(CCc1ccc(O)cc1)c1c(O)cc(O)cc1O` [phloretin], which inhibition of deiodination (deiodination) is on record?
A: potent inhibitor

Q: With `N[C@@H](Cc1ccc(Oc2cc(I)c(O)c(I)c2)c(I)c1)C(=O)O` [rT3, 3, 3′, 5′-triiodothyronine] as the molecule, how does the pKd [2] read?
A: 9.30 to 9.52

Q: And the pKd (ΔTRα1)?
A: 9.00 to 9.52

Q: And the pKd (ΔTRα2)?
A: 9.00 to 9.52

Q: What about the pEC50 [3] of the same molecule?
A: ~9.30

Q: And the “subcellular distribution of TRα2-derived proteins” value (astrocytes)?
A: coalescence of the TRα2-derived proteins around the perinuclear space

Q: And the “decrease of the rate of FM1-43 release” value [4]?
A: 75%
